Assay results as given in patent US8802894B2, “Process for the preparation of aqueous solutions of methylglycine-N,N-diacetic acid trialkali metal salts” (BASF SE, priority 2012, dated 2014).

Tests used:
[1] = solubility limit / achievable concentration in water; type: physicochemical
[2] = saturation concentration of aqueous solutions, L-enantiomer versus D,L-racemate; type: physicochemical; conditions: aqueous solution
Source text: The L-enantiomer of α-alanine is available at low cost and leads, through Strecker synthesis, as a result of reaction with hydrocyanic acid and formaldehyde in aqueous solution, to L-α-alanine-N,N-diacetonitrile, and saponification thereof with a base leads to aqueous solutions which not only have a higher saturation concentration of the L-enantiomer compared to the D,L-racemate of the MGDA trialkali metal salts, but which also produce a readily crystallizing solid by means of crystallization.

Row | solubility limit [1] | solubility compared to the racemate [2] | Molecule
1 | ca. 18 % by weight | – | C[C@H](N)C(=O)O [α-alanine]
2 | – | higher | methylglycine-N,N-diacetic acid trialkali metal salt [L-MGDA trialkali metal salt]
